Legend:
[1] = system: cytosolic enzymes that convert Formula Ia to Formula Ia′; assay: in vitro; details: human
Method: (§3) All incubations contained 3 mM magnesium chloride and NADPH-generating system in 0.5 mL of 50 mM potassium phosphate buffer, pH 7.4. Prior to the addition of drug, incubation mixtures were preincubated for 2 min at 37° C. […] The incubation mixtures were vortexed and centrifuged (˜10,000 g) at 4° C. for 10 min; supernatants were analyzed by HPLC coupled with radiometric detector. Heat activated S9 cofactor or mitochondria were used as control. For LC-MS analysis, supernatants were concentrated in SpeedVac for 3 hrs. Incubation volumes were 0.5 mL and the final concentration of the organic solvents in the incubation system was less than 1% (v/v).
(§4) The mobile phase consisted of 10 mM ammonium acetate adjusted to pH 7.0 with 1% ammonium hydroxide (A) and 100% methanol (B).

AKR1C2 = biological target: T1, AKR1C2 (Homo sapiens, UniProt P52895); assay: Incubation with S9 fraction of recombinant human AKR1C2; format: in vitro ADME; parameters: made in house; details: 20 μM 14C-radiolabeled compound; S9 2.5 mg protein/mL; NADPH
T1 sequence (P52895 1-323): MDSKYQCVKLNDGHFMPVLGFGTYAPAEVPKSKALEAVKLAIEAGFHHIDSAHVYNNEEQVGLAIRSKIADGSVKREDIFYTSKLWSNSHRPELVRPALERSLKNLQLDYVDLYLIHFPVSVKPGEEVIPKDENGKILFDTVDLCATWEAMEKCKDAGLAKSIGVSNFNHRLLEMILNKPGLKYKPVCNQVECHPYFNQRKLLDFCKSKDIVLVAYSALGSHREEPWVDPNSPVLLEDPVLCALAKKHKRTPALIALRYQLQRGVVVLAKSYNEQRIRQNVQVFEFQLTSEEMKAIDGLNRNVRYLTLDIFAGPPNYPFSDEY
Method: (§1) Recombinant human AKRs (AKR1C2, AKR1C3 and AKR1C4) were grown, sonicated and centrifuged at ˜10,000 g to obtain S9 fractions. Incubations of ^14C-radiolabeled compound of Formula Ia, ^14C-radiolabeled compound of Formula Ib and ^14C-radiolabeled compound of Formula Ic (all at 20 μM) with S9-fractions from three recombinant human AKRs (2.5 mg protein/mL) were conducted as described above. [drawing 161]
(§2) The samples were analyzed by HPLC-coupled with radiometric detector and confirmed by LC-MS.

[2] = In vivo inhibition study of Formula Ia with AKR competitor diflunisal, plasma PK; details: cynomolgus monkeys plasma; as a function of diflunisal dose 0, 62.5, 125, 250 mg
Method: An in vivo study was conducted in cynomolgus monkeys where 200 mg Formula Ia and 0 (control), 62.5, 125, or 250 mg diflunisal (Dolobid) was administered as illustrated below. All six monkeys were first dosed with Formula Ia with blood samples collected over a 12 hr period for plasma pharmacokinetics (PK) of Formula Ia prior to administration of diflunisal (dose-escalation). Four doses of diflunisal were subsequently administered every 12 hr with Formula Ia administered at each 4th diflunisal dose after which blood samples were collected for PK assessment of Formula Ia. The following chart summarizes the timing of Formula Ia and diflunisal administration.

[3] = system: cytosolic enzymes that convert Formula Ia to Formula Ia′; assay: Inhibition of metabolism of 14C-Formula Ia to Formula Ia′ in human liver cytosol; details: human; for inhibition at 120 min: pH 7.4
Method: as §3, §4

[4] = system: cytosolic enzymes that convert Formula Ia to Formula Ia′; assay: Inhibition of metabolism of 14C-Formula Ia to Formula Ia′ in human liver S9; format: in vitro ADME; details: human, pH 7.4
AKR1C3 = biological target: T2, AKR1C3 (Homo sapiens, UniProt P42330); assay: Incubation with S9 fraction of recombinant human AKR1C3; format: in vitro ADME; parameters: made in house; details: 20 μM 14C-radiolabeled compound; S9 2.5 mg protein/mL; NADPH
T2 sequence (P42330 1-323): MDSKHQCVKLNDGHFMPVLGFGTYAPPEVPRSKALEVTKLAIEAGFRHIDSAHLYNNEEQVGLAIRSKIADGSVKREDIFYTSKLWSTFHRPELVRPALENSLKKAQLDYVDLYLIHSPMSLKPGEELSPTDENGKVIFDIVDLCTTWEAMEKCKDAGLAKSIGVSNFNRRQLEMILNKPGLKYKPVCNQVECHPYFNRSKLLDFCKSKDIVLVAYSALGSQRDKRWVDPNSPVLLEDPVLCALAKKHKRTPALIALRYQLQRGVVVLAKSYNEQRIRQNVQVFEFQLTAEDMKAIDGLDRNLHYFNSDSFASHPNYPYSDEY
Method: as §1, §2

[5] = pH 7.4, % of Inhibition on Metabolite Formation of Compound Formula Ia
[6] = pH 7.4, % Inhibition on Metabolite Formation of Compound Formula Ia
[7] = pH 7.4, inhibited formation of the compound of Formula Ia′

## CC(C)=CCC/C(C)=C/COc1c2ccoc2cc2oc(=O)ccc12 [Bergamottin]
[1]; [5]
  inhibition at 2 h, 10 µM: 10%

## Oc1ncnc2[nH]ncc12 [Allopurinol]
[1]; [6]
  inhibition at 2 h, 100 µM: 2%
Human liver cytosol
  inhibited formation of the compound of Formula Ia′: no inhibition

## Cc1ccc(C(=O)c2ccc(CC(=O)O)n2C)cc1 [Tolmetin]
[1]; [5]
  inhibition at 2 h, 125 µM: 2.14%

## O=C(O)CCc1nc(-c2ccccc2)c(-c2ccccc2)o1 [Oxaprozin]
[1]; [5]
  inhibition at 2 h, 500 µM: 76.1%

## COc1ccc2c(c1)c(CC(=O)O)c(C)n2C(=O)c1ccc(Cl)cc1 [Indomethacin]
[1]; [6]
  inhibition at 120 min, 100 µM: 19%
  inhibition at 120 min, 100 μM: 19%
[1]; [5]
  inhibition at 2 h, 100 µM: 19%

## CC(C)(C)NC(=O)N[C@H](C(=O)N1C[C@H]2[C@@H]([C@H]1C(=O)N[C@@H](CC1CCC1)C(=O)C(N)=O)C2(C)C)C(C)(C)C [Formula Ic, (1R,2S,5S)—N-[(1S)-3-amino-1-(cyclobutylmethyl)-2,3-dioxopropyl]-3-[(2S)-2-[[[(1,1-dimethylethyl)amino]carbonyl]amino]-3,3-dimethyl-1-oxobutyl]-6,6-dimethyl-3-azabicyclo[3.1.0]hexane-2-carboxamide]
AKR1C2
  metabolism by recombinant AKR1C2: preferentially metabolized
[2]
  AUC ratio (Formula Ia′ to AUC for the compound): decline

## C#CCN(C)Cc1ccccc1 [Pargyline]
[1]; [6]
  inhibition at 2 h, 1 µM: 0%
Human liver cytosol
  inhibited formation of the compound of Formula Ia′: no inhibition

## O=C(O)c1ccccc1Nc1cccc(C(F)(F)F)c1 [Flufenamic acid, N-(3-trifluoromethylphenyl)anthranilic acid]
[1]; [6]
  inhibition at 2 h, 100 µM: 80.3%
[1]; [7]
  inhibition at 120 min: 80.3%

## O=C(c1ccccc1)c1ccc2n1CCC2C(=O)O (stereo not shown) [Ketorolac]
[1]; [5]
  inhibition at 2 h, 4 µM: 0%

## Cc1cccc(Nc2ccccc2C(=O)O)c1C [Mefenamic acid]
[1]; [5]
  inhibition at 2 h, 1 µM: 14.6%
  inhibition at 2 h, 10 µM: 51.1%

## Cc1ncc2n1-c1ccc(Cl)cc1C(c1ccccc1F)=NC2 [Midazolam]
[3]
  inhibition at 120 min: 37%

## CCc1cccc2c3c([nH]c12)C(CC)(CC(=O)O)OCC3 (stereo not shown) [Etodolac]
[1]; [5]
  inhibition at 2 h, 100 µM: 3.74%

## CC1=C(CC(=O)O)c2cc(F)ccc2/C1=C\c1ccc([S+](C)[O-])cc1 (stereo not shown) [Sulindac]
[3]; pooled human liver cytosol, pH 7.4, probe 14C-radiolabeled compound of Formula Ia (20 μM), % of Inhibition on Metabolite Formation of Compound Formula Ia, Table 5, human liver cytosol, 2 hr incubation, 30 μM
  inhibition at 2 h, 30 µM: 19%

## O=C1C[C@@H](c2ccc(O)cc2)Oc2cc(O)cc(O)c21 [Naringenin]
[3]; pooled human liver cytosol, pH 7.4, probe 14C-radiolabeled compound of Formula Ia (20 μM), % of Inhibition on Metabolite Formation of Compound Formula Ia, Table 5, human liver cytosol, 2 hr incubation, 500 μM
  inhibition at 2 h, 500 µM: 86.7%

## O=C1OC(c2ccc(O)cc2)(c2ccc(O)cc2)c2ccccc21 [Phenolphthalein]
[1]; [6]
  inhibition at 120 min, 100 μM: 86.1%
[1]; [7]
  inhibition at 120 min: 86.1%

## O=C(O)Cc1ccccc1Nc1c(Cl)cccc1Cl [Diclofenac]
[1]; [5]
  inhibition at 2 h, 7 µM: 57.3%

## CC1=CC(=O)c2ccccc2C1=O [Menadione]
[1]; [6]
  inhibition at 2 h, 100 µM: 29.7%
[1]; [7]
  inhibition at 120 min, 100 µM: 30%
[4]
  inhibition at 120 min, 100 µM: 18%

## CN1C(=O)CN=C(c2ccccc2F)c2cc([N+](=O)[O-])ccc21 [Flunitrazepam]
[3]
  inhibition at 120 min: 51%

## COc1ccc2cc(CCC(C)=O)ccc2c1 [Nabumetone]
[1]; [5]
  inhibition at 2 h, 200 µM: 42.4%

## CC(C)Cc1ccc(C(C)C(=O)O)cc1 (stereo not shown) [Ibuprofen]
[1]; [6]
  inhibition at 120 min, 50 µM: 21.9%
  inhibition at 120 min, 50 μM: 31.3%
  inhibition at 120 min, 100 µM: 31.4%
  inhibition at 120 min, 100 μM: 33.4%
  inhibition at 120 min, 200 µM: 40.7%
  inhibition at 120 min, 200 μM: 43.3%
  inhibition at 120 min, 500 µM: 56.6%
  inhibition at 120 min, 1000 µM: 70%
  inhibition at 120 min, 1000 μM: 70%
[1]; [5]
  inhibition at 2 h, 200 µM: 43.3%
[1]; pH 7.4, inhibited metabolism of 14C-radiolabeled compound of Formula Ia
  inhibition at 120 min: 70%

## Cc1ccc(C)c(OCCCC(C)(C)C(=O)O)c1 [Gemfibrozil, 5-(2,5-dimethylphenoxy)-2,2-dimethylpentanoic acid]
[1]; [6]
  inhibition at 120 min, 100 µM: 27.4%
  inhibition at 120 min, 100 μM: 27.4%

## O=c1c(O)c(-c2ccc(O)c(O)c2)oc2cc(O)cc(O)c12 [Quercetin]
[1]; [6]
  inhibition at 2 h, 100 µM: 33.4%
[1]; [7]
  inhibition at 120 min, 100 µM: 33.4%
[4]
  inhibition at 120 min, 100 µM: 9.3%

## CC(C)(C)NC(=O)N[C@H](C(=O)N1C[C@H]2[C@@H]([C@H]1C(=O)N[C@H](CC1CCC1)C(=O)C(N)=O)C2(C)C)C(C)(C)C [Formula Ib]
[2]
  AUC ratio (Formula Ia′ to AUC for the compound): decline
AKR1C3
  metabolism by recombinant AKR1C3: preferentially metabolized

## Cc1ccc(-c2cc(C(F)(F)F)nn2-c2ccc(S(N)(=O)=O)cc2)cc1 [Celecoxib]
[1]; [6]
  inhibition at 120 min, 2 μM: 8.42%
  inhibition at 120 min, 10 μM: 9.18%
  inhibition at 120 min, 50 μM: 20.5%
[1]; [5]
  inhibition at 2 h, 50 µM: 20.5%

## CC(C(=O)O)c1cccc(Oc2ccccc2)c1 (stereo not shown) [Fenoprofen]
[1]; [5]
  inhibition at 2 h, 80 µM: 14.2%

## NC(=O)c1ncn([C@@H]2O[C@H](CO)[C@@H](O)[C@H]2O)n1 [Ribavirin]
[1]; [6]
  inhibition at 120 min, 10 μM: 1.76%
  inhibition at 120 min, 30 μM: 0%

## CC(C(=O)O)c1ccc(-c2ccccc2)c(F)c1 (stereo not shown) [Flurbirofen]
[1]; [5]
  inhibition at 2 h, 50 µM: 31.6%

Reference: patent publication US20070232527A1, “Medicaments and methods combining a HCV protease inhibitor and an AKR competitor” (priority 2005, published 2007)
